The text below walks through data of patent US12049450B2, “Pyridyloxy-carboxylate derivative and preparation method therefor, herbicidal composition, and use” (Qingdao Kingagroot Chemical Compound Co., Ltd., priority 2018, dated 2024).

Format in all cases: in vivo
One data set has as its system rice (japonica rice). Put plainly: Transplanted rice safety evaluation in rice field soil pot. The conditions noted are these: 1000 g/ha, 21 days after treatment. From the text:
(§1) The activity level standard of harmful plants destruction (i. e. growth inhibition rate) is as follows: • Level 5: the growth inhibition rate is greater than 85%; • Level 4: the growth inhibition rate is equal to or greater than 60% and less than 85%; • Level 3: the growth inhibition rate is equal to or greater than 40% and less than 60%; • Level 2: the growth inhibition rate is equal to or greater than 20% and less than 40%; • Level 1: the growth inhibition rate is equal to or greater than 5% and less than 20%; • Level 0: the growth inhibition rate is less than 5%;
(§2) Transplanted rice safety evaluation and weed control effect evaluation in rice field:
In addition, the rice field soil that loaded into the 1/1,000,000 ha pot was leveled to keep water storage at 3-4 cm depth. The 3-leaf stage rice (japonica rice) was transplanted at 3 cm of transplanting depth the next day. The compound of the present invention was treated by the same way after 5 days of transplantation.
(§3) The fertility condition of Monochoria vaginalis 14 days and rice 21 days after the treatment of the compound of the invention with the naked eye.

The subject of data set [1] is Monochoria vaginalis. Put plainly: Weed control effect evaluation in rice field soil pot. The conditions noted are these: paddy pot, 14 days after treatment, resistant to pyrazosulfuron-ethyl and penoxsulam.
Source text: as §1, §2
Rice field soil was loaded into a 1/1,000,000 ha pot. The seeds of Monochoria vaginalis were sowed and gently covered with soil, then left to stand still in greenhouse in the state of 0.5-1 cm of water storage. It was kept at 3-4 cm of water storage thereafter. The weeds were treated by dripping the WP or SC water diluents prepared according to the common preparation method of the compounds of the present invention with pipette homogeneously to achieve specified effective amount when Monochoria vaginalis reached 0.5 leaf stage.
as §3

In another data set the test system is Indica rice. Put plainly: Post-emergence test experiment (greenhouse pot, spray at 2-3 leaf stage). The note with it: post-emergence, after 3 weeks. In short, it runs like this:
(§4)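 Activity graded levels 0-5 by fresh-weight inhibition (level 5 above 85%, level 0 below 5%), assessed 3 weeks after treatment. Plants grown in greenhouse pots were sprayed post-emergence at 2-3 leaves using acetone/tween-80 solutions with methyl oleate synergist (1.5 L/ha).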

The test system of another data set is Abutilon theophrasti. The description is as above. The note with it: 1000 g/ha; post-emergence spray at 2-3 leaf stage; assessed after 3 weeks; fresh weight inhibition rate. In short, it runs like this:
as §4

The test system of the next data set is Japonica rice. The data set is described as above. The conditions noted are these: post-emergence, after 3 weeks. In short, it runs like this: as §4
In another data set the test system is Galium spurium. The data set is described as above. The note with it: 1000 g/ha; post-emergence spray at 2-3 leaf stage; assessed after 3 weeks; fresh weight inhibition rate. In a few lines:
as §4

In another data set the test system is Digitaria sanguinalis. The data set is described as above. The note with it: 1000 g/ha; post-emergence spray at 2-3 leaf stage; assessed after 3 weeks; fresh weight inhibition rate. In short, it runs like this:
as §4

The subject of the next data set is Cyperus iria. The description is as above. The conditions noted are these: post-emergence, after 3 weeks, resistant to ALS inhibitor herbicides. In a few lines:
as §4

The subject of a further data set is Echinochloa crusgalli. Described as above. The note with it: for Activity level (growth inhibition rate) Echinochloa crusgalli: 1000 g/ha, post-emergence spray at 2-3 leaf stage, assessed after 3 weeks, fresh weight inhibition rate; for Echinochloa crusgalli, activity level (growth inhibition rate): post-emergence, after 3 weeks, resistant to ALS inhibitor herbicides. In a few lines:
as §4

For data set [2], the system named is Monochoria vaginalis. The description is as above. The note with it: 1000 g/ha; post-emergence spray at 2-3 leaf stage; assessed after 3 weeks; fresh weight inhibition rate. In a few lines:
as §4

As to `Cc1c(OC(C)C(=O)OCc2ccccc2)nc(F)c(Cl)c1N` (stereo not drawn) [Compound 20], the “Rice, safety level” value with rice (japonica rice) was 0 (Level 0: the growth inhibition rate is less than 5%). The “Monochoria Vaginalis, activity level” value in the data set with Monochoria vaginalis [1] (1000 g/ha) is 5 (Level 5: the growth inhibition rate is greater than 85%). Besides, the “Indica rice, activity level (growth inhibition rate)” value with Indica rice (600 g/ha) is on record as 0 (Level 0: the growth inhibition rate is less than 5%). In addition, the “Activity level (growth inhibition rate) Abutilon theophrasti” value in the data set with Abutilon theophrasti was 5 (Level 5: the growth inhibition rate is greater than 85%). In the data set with Japonica rice (600 g/ha), the “Japonica rice, activity level (growth inhibition rate)” value is 0 (Level 0: the growth inhibition rate is less than 5%). The “Activity level (growth inhibition rate) Galium spurium” value in the data set with Galium spurium is given as 5 (Level 5: the growth inhibition rate is greater than 85%). In addition, the “Activity level (growth inhibition rate) Digitaria sanguinalis” value with Digitaria sanguinalis is given as 5 (Level 5: the growth inhibition rate is greater than 85%). The “Cyperus iria, activity level (growth inhibition rate)” value with Cyperus iria (600 g/ha, from Hunan) is 5 (Level 5: the growth inhibition rate is greater than 85%). The “Activity level (growth inhibition rate) Echinochloa crusgalli” value in the data set on Echinochloa crusgalli is given as 5 (Level 5: the growth inhibition rate is greater than 85%). The “Echinochloa crusgalli, activity level (growth inhibition rate)” value in the data set with Echinochloa crusgalli (600 g/ha, from Hunan) was 5 (Level 5: the growth inhibition rate is greater than 85%). Moreover, the “Activity level (growth inhibition rate) Monochoria Vaginalis” value with Monochoria vaginalis [2] was 5 (Level 5: the growth inhibition rate is greater than 85%).
Regarding `CC(Oc1nc(F)c(Cl)c(N)c1Cl)C(=O)SCc1cccc(Cl)c1` (stereo not drawn) [Compound 76], in the data set with rice (japonica rice), the “Rice, safety level” value is recorded as 0 (Level 0: the growth inhibition rate is less than 5%). Further, the “Monochoria Vaginalis, activity level” value in the data set on Monochoria vaginalis [1] (1000 g/ha) is 5 (Level 5: the growth inhibition rate is greater than 85%). Also, the “Indica rice, activity level (growth inhibition rate)” value in the data set with Indica rice (600 g/ha) is on record as 0 (Level 0: the growth inhibition rate is less than 5%). Also, the “Activity level (growth inhibition rate) Abutilon theophrasti” value in the data set with Abutilon theophrasti is listed as 5 (Level 5: the growth inhibition rate is greater than 85%). For the same molecule, the “Japonica rice, activity level (growth inhibition rate)” value in the data set with Japonica rice (600 g/ha) is reported as 0 (Level 0: the growth inhibition rate is less than 5%). The “Activity level (growth inhibition rate) Galium spurium” value with Galium spurium is recorded as 5 (Level 5: the growth inhibition rate is greater than 85%). In addition, the “Activity level (growth inhibition rate) Digitaria sanguinalis” value in the data set with Digitaria sanguinalis is listed as 5 (Level 5: the growth inhibition rate is greater than 85%). The “Cyperus iria, activity level (growth inhibition rate)” value in the data set on Cyperus iria (600 g/ha, from Hunan) was 5 (Level 5: the growth inhibition rate is greater than 85%). Besides, the “Activity level (growth inhibition rate) Echinochloa crusgalli” value in the data set on Echinochloa crusgalli is listed as 5 (Level 5: the growth inhibition rate is greater than 85%). Also, the “Echinochloa crusgalli, activity level (growth inhibition rate)” value with Echinochloa crusgalli (600 g/ha, from Hunan) is 5 (Level 5: the growth inhibition rate is greater than 85%). The “Activity level (growth inhibition rate) Monochoria Vaginalis” value with Monochoria vaginalis [2] is recorded as 5 (Level 5: the growth inhibition rate is greater than 85%).
Turning to `COc1cc(OC)nc(Oc2cccc(Oc3nc(OC)cc(OC)n3)c2C(=O)O)n1` [Bispyribac-sodium, reference compound], the “Indica rice, activity level (growth inhibition rate)” value with Indica rice (100 g/ha) was 2 (Level 2: the growth inhibition rate is equal to or greater than 20% and less than 40%). In addition, the “Japonica rice, activity level (growth inhibition rate)” value in the data set with Japonica rice (100 g/ha) is 4 (Level 4: the growth inhibition rate is equal to or greater than 60% and less than 85%). The “Cyperus iria, activity level (growth inhibition rate)” value with Cyperus iria (100 g/ha) is 2 (Level 2: the growth inhibition rate is equal to or greater than 20% and less than 40%). In addition, the “Echinochloa crusgalli, activity level (growth inhibition rate)” value in the data set on Echinochloa crusgalli (100 g/ha) was 1 (Level 1: the growth inhibition rate is equal to or greater than 5% and less than 20%).
For `CC(Oc1nc(F)c(Cl)c(N)c1Cl)C(=O)OCCc1ccoc1` (stereo not drawn) [Compound 140], the “Rice, safety level” value in the data set on rice (japonica rice) is on record as 0 (Level 0: the growth inhibition rate is less than 5%). In addition, in the data set with Monochoria vaginalis [1] (1000 g/ha), the “Monochoria Vaginalis, activity level” value is 5 (Level 5: the growth inhibition rate is greater than 85%). In addition, in the data set with Indica rice (600 g/ha), the “Indica rice, activity level (growth inhibition rate)” value is on record as 0 (Level 0: the growth inhibition rate is less than 5%). Moreover, in the data set on Abutilon theophrasti, the “Activity level (growth inhibition rate) Abutilon theophrasti” value is 5 (Level 5: the growth inhibition rate is greater than 85%). Also, the “Japonica rice, activity level (growth inhibition rate)” value in the data set on Japonica rice (600 g/ha) was 0 (Level 0: the growth inhibition rate is less than 5%). Besides, in the data set on Galium spurium, the “Activity level (growth inhibition rate) Galium spurium” value is recorded as 5 (Level 5: the growth inhibition rate is greater than 85%). The “Activity level (growth inhibition rate) Digitaria sanguinalis” value with Digitaria sanguinalis is recorded as 5 (Level 5: the growth inhibition rate is greater than 85%). Besides, the “Cyperus iria, activity level (growth inhibition rate)” value with Cyperus iria (600 g/ha, from Hunan) is on record as 5 (Level 5: the growth inhibition rate is greater than 85%). The “Activity level (growth inhibition rate) Echinochloa crusgalli” value in the data set with Echinochloa crusgalli is recorded as 5 (Level 5: the growth inhibition rate is greater than 85%). Also, in the data set on Echinochloa crusgalli (600 g/ha, from Hunan), the “Echinochloa crusgalli, activity level (growth inhibition rate)” value was 5 (Level 5: the growth inhibition rate is greater than 85%). The “Activity level (growth inhibition rate) Monochoria Vaginalis” value in the data set with Monochoria vaginalis [2] is 5 (Level 5: the growth inhibition rate is greater than 85%).
For the molecule `CC(Oc1nc(F)c(Cl)c(N)c1Cl)C(=O)SCc1ccc2ncccc2c1` (stereo not drawn) [Compound 185], in the data set with rice (japonica rice), the “Rice, safety level” value was 0 (Level 0: the growth inhibition rate is less than 5%). For the same molecule, the “Monochoria Vaginalis, activity level” value in the data set with Monochoria vaginalis [1] (1000 g/ha) is 5 (Level 5: the growth inhibition rate is greater than 85%). The “Indica rice, activity level (growth inhibition rate)” value in the data set on Indica rice (600 g/ha) is 0 (Level 0: the growth inhibition rate is less than 5%). The “Activity level (growth inhibition rate) Abutilon theophrasti” value in the data set with Abutilon theophrasti was 5 (Level 5: the growth inhibition rate is greater than 85%). Also, in the data set on Japonica rice (600 g/ha), the “Japonica rice, activity level (growth inhibition rate)” value is on record as 0 (Level 0: the growth inhibition rate is less than 5%). Further, the “Activity level (growth inhibition rate) Galium spurium” value in the data set on Galium spurium is recorded as 5 (Level 5: the growth inhibition rate is greater than 85%). The “Activity level (growth inhibition rate) Digitaria sanguinalis” value with Digitaria sanguinalis is given as 5 (Level 5: the growth inhibition rate is greater than 85%). For the same molecule, the “Cyperus iria, activity level (growth inhibition rate)” value in the data set with Cyperus iria (600 g/ha, from Hunan) is recorded as 5 (Level 5: the growth inhibition rate is greater than 85%). Besides, in the data set with Echinochloa crusgalli, the “Activity level (growth inhibition rate) Echinochloa crusgalli” value is given as 5 (Level 5: the growth inhibition rate is greater than 85%). Further, the “Echinochloa crusgalli, activity level (growth inhibition rate)” value in the data set with Echinochloa crusgalli (600 g/ha, from Hunan) is recorded as 5 (Level 5: the growth inhibition rate is greater than 85%). The “Activity level (growth inhibition rate) Monochoria Vaginalis” value in the data set with Monochoria vaginalis [2] is 5 (Level 5: the growth inhibition rate is greater than 85%).
On to `CC(Oc1nc(F)c(Br)c(N)c1Br)C(=O)SCc1ccccc1` (stereo not drawn) [Compound 12], for which the “Rice, safety level” value in the data set on rice (japonica rice) is on record as 0 (Level 0: the growth inhibition rate is less than 5%). In addition, in the data set with Monochoria vaginalis [1] (1000 g/ha), the “Monochoria Vaginalis, activity level” value is recorded as 5 (Level 5: the growth inhibition rate is greater than 85%). In addition, the “Indica rice, activity level (growth inhibition rate)” value with Indica rice (600 g/ha) is given as 0 (Level 0: the growth inhibition rate is less than 5%). In the data set on Abutilon theophrasti, the “Activity level (growth inhibition rate) Abutilon theophrasti” value is on record as 5 (Level 5: the growth inhibition rate is greater than 85%). Also, the “Japonica rice, activity level (growth inhibition rate)” value in the data set with Japonica rice (600 g/ha) is listed as 0 (Level 0: the growth inhibition rate is less than 5%). The “Activity level (growth inhibition rate) Galium spurium” value in the data set on Galium spurium is 5 (Level 5: the growth inhibition rate is greater than 85%). The “Activity level (growth inhibition rate) Digitaria sanguinalis” value in the data set with Digitaria sanguinalis is 5 (Level 5: the growth inhibition rate is greater than 85%). In addition, the “Cyperus iria, activity level (growth inhibition rate)” value with Cyperus iria (600 g/ha, from Hunan) is reported as 5 (Level 5: the growth inhibition rate is greater than 85%). Further, the “Activity level (growth inhibition rate) Echinochloa crusgalli” value in the data set with Echinochloa crusgalli is listed as 5 (Level 5: the growth inhibition rate is greater than 85%). In the data set with Echinochloa crusgalli (600 g/ha, from Hunan), the “Echinochloa crusgalli, activity level (growth inhibition rate)” value is recorded as 5 (Level 5: the growth inhibition rate is greater than 85%). Besides, in the data set on Monochoria vaginalis [2], the “Activity level (growth inhibition rate) Monochoria Vaginalis” value is 5 (Level 5: the growth inhibition rate is greater than 85%).
Turning to `COc1cnc(OC)n2nc(NS(=O)(=O)c3c(OCC(F)F)cccc3C(F)(F)F)nc12` [Penoxsulam, reference compound], the “Monochoria Vaginalis, activity level” value in the data set with Monochoria vaginalis [1] (50 g/ha) was 1 (Level 1: the growth inhibition rate is equal to or greater than 5% and less than 20%).
